{"source": "patent US10183047B2", "about": "“Chromium-containing compositions in combination with Phyllanthus emblica and shilajit having synergistic effects for improving endothelial function and cardiovascular health” (Natreon, Inc., priority 2014, dated 2019)", "assay_type_in_all_cases": "in vivo, human", "key": {"nitric oxide (NO) [1]": {"tested_on": "nitric oxide (NO)", "assay": "Nitric oxide level, metabolic syndrome subjects", "experimental": "(§1) Nitric oxide, MDA, Glutathione and levels were estimated spectrophotometrically as follows. Malondialdehyde (MDA) levels were determined as described in Vidyasagar, et al., “Oxidative stress and antioxidant status in acute organophosphorous insecticide poisoning,” Indian J. Pharmacol. (April 2004) 36(2): 76-79. Glutathione levels were determined as described in G. L. Ellman, Arch. Biochem. Biophys. (1959) 82: 70-77 (original determination). Nitric oxide levels were estimated spectrophotometrically as described in Miranda, et al., “A Rapid, Simple Spectrophotometric Method for Simultaneous Detection of Nitrate and Nitrite,” NITRIC OXIDE: Biology and Chemistry (2001) Vol. 5, No. 1, pp. 62-71. hsCRP (high sensitivity C-reactive protein) was determined by ELISA method.\n(§2) Patients included in the study, were of either gender, aged 30-68 years, having endothelial dysfunction defined as ≤6% change in reflection index (RI) on post salbutamol challenge test and central obesity as defined by The International Diabetes Federation guidelines, dated 2006, and any two of the following conditions:\n(§3) After screening, all the eligible subjects were randomized to receive either one of the three treatments orally for duration of 12 weeks: group 1—one capsule of Crominex®3+ 200 mcg once daily; group 2—one capsule 400 mcg once daily; group 3—one capsule of Placebo once daily.\n(§4) Subjects were reviewed for follow up at 4 weeks, 8 and 12 weeks of therapy. At each visit they were evaluated for efficacy and safety. Pharmacodynamic evaluation for endothelial function was conducted at baseline and end of treatment. Blood samples were collected for evaluation of biomarkers before and at end of treatment. Safety lab investigations for hematological, hepatic and renal biochemical parameters were conducted before and at the end of the study and also as and when required (in case of any adverse drug reaction (ADR)). Subjects were enquired for the presence of ADR and the same was recorded in the case report form. Compliance to therapy was assessed by pill count method.\n(§5) Assessment of endothelial function, biomarkers, safety parameters and primary and secondary efficacy parameters and data analysis were performed as described under the study with type 2 diabetic subjects in Example 1.\n(§6) When the results with Crominex® 3+ in the above two examples were highly significant, especially with the 400 mcg once daily dose in type 2 diabetics, two more clinical studies (EXAMPLES 3 & 4) were conducted at the same institute, following the same methodology as described earlier, on the individual components of Crominex® 3+, i.e., chromium chloride and Phyllanthus emblica+Shilajit, and other chromium supplements available in the market, i.e., chromium picolinate, chromium polynicotinate and chromium dinicocysteinate, in type 2 diabetics as well as in subjects with metabolic syndrome symptoms."}, "nitric oxide (NO) [2]": {"tested_on": "nitric oxide (NO)", "assay": "Nitric oxide level, spectrophotometric, type 2 diabetics", "experimental": "(§7) The present clinical study is a prospective, randomized, double blind, placebo-controlled study. Patients of either sex, aged 30-65 years, fasting plasma glucose of 110-126 mg/dl, a glycosylated hemoglobin (HbA1c) between 6.5% and 8% and taking stable dose of anti-diabetic treatment (metformin 1500-2000 mg/day) for the past 8 weeks prior to the screening visit; and having endothelial dysfunction defined as ≤6% change in reflection index (RI) on post salbutamol challenge test were included in the study. Patients with severe uncontrolled hyperglyceamia, uncontrolled hypertension, cardiac arrhythmia, impaired hepatic or renal function, history of malignancy or stroke, smoking, chronic alcoholism, any other serious disease requiring active treatment and treatment with any other herbal supplements, were excluded from the study.\n(§8) After screening, all the eligible subjects were randomized to receive either one of the three treatments orally for duration of 12 weeks—Group1—one capsule of Crominex®3+, 200 mcg once daily, Group 2—one capsule Crominex®3+, 400 mcg once daily; Group 3—one capsule of placebo once daily.\nas §4, with “Subjects were required for follow” for “Subjects were reviewed for follow”, “up at 4, 8 and” for “up at 4 weeks, 8 and”, “conducted at every visit. Blood samples” for “conducted at baseline and end of treatment. Blood samples”, “and at the end of” for “and at end of”, “drug reaction (ADR). Subjects were” for “drug reaction (ADR)). Subjects were”\nas §1, §6"}, "lipid profile [3]": {"tested_on": "lipid profile", "assay": "Lipid profile (TC, HDL-C, LDL-C, TG, VLDL-C), type 2 diabetics", "experimental": "as §7, §8\nas §4, with “Subjects were required for follow” for “Subjects were reviewed for follow”, “up at 4, 8 and” for “up at 4 weeks, 8 and”, “conducted at every visit. Blood samples” for “conducted at baseline and end of treatment. Blood samples”, “and at the end of” for “and at end of”, “drug reaction (ADR). Subjects were” for “drug reaction (ADR)). Subjects were”\n(§9) All the subjects had undergone complete physical examination, safety lab evaluations at baseline and at the end of the treatment. Samples were collected after an overnight fast of 12 hrs after the last dose of medication for determination of hemoglobin, glycosylated hemoglobin (HbA1c), blood urea, serum creatinine, liver function, lipid profile (Total cholesterol, High density lipoprotein cholesterol (HDL-C), low density lipoprotein cholesterol (LDL-C) using appropriate standard techniques.\nas §6"}, "glutathione (GSH)": {"tested_on": "glutathione (GSH)", "assay": "Glutathione level, metabolic syndrome subjects", "experimental": "as §1, §2, §3, §4, §5, §6"}, "fasting plasma glucose [4]": {"tested_on": "fasting plasma glucose", "assay": "Fasting plasma glucose, metabolic syndrome subjects", "excerpt": "as §2, §3, §4, §6"}, "fasting plasma glucose [5]": {"tested_on": "fasting plasma glucose", "assay": "Fasting plasma glucose, type 2 diabetics", "experimental": "as §6"}, "lipid profile [6]": {"tested_on": "lipid profile", "assay": "Lipid profile (TC, HDL-C, LDL-C, TG), metabolic syndrome subjects", "excerpt": "as §9\nas §2, with “conditions: […]” for “conditions:”\nas §4, §5, §6"}, "[7]": {"details": "metabolic syndrome subjects (Example 4), chromium products 400 mcg, after 12 weeks of treatment"}, "[8]": {"details": "metabolic syndrome subjects (Example 4), chromium products 400 mcg, after 12 weeks treatment"}, "[9]": {"details": "metabolic syndrome subjects (Example 4), chromium products 400 mcg, pre-treatment"}, "[10]": {"details": "type 2 diabetics (Example 3), chromium products 400 mcg, post-treatment, 12 weeks"}, "[11]": {"details": "type 2 diabetics (Example 3), chromium products 400 mcg, pre-treatment"}, "[12]": {"details": "type 2 diabetics (Example 3), chromium products 400 mcg, 12 weeks of treatment"}}}
{"smiles": "O.O.O.O.O.O.[Cl][Cr]([Cl])[Cl]", "note": "[Chromium chloride, Chromium chloride (CrCl3.6H2O)]", "values": [{"measurement": "NO", "setting": "nitric oxide (NO) [1]; MS, 400 mcg", "value": 5.5, "unit": "%"}, {"measurement": "NO Post Tt", "setting": "nitric oxide (NO) [1]; [7]", "value": "30.99 ± 4.46", "unit": "μM/L"}, {"measurement": "Mean percentage change in NO", "setting": "nitric oxide (NO) [1]; [8]", "value": "5.50 ± 1.73", "unit": "%"}, {"measurement": "NO Pre Tt", "setting": "nitric oxide (NO) [1]; [9]", "value": "29.39 ± 4.43", "unit": "μM/L"}, {"measurement": "NO", "setting": "nitric oxide (NO) [2]; DM, 400 mcg", "value": 6.98, "unit": "%"}, {"measurement": "Mean percentage change in NO", "setting": "nitric oxide (NO) [2]; type 2 diabetics (Example 3), chromium products 400 mcg, 12 week treatment", "value": "6.98 ± 10.15@NS %"}, {"measurement": "NO Post Tt", "setting": "nitric oxide (NO) [2]; [10]", "value": "29.60 ± 2.65", "unit": "μM/L"}, {"measurement": "NO Pre Tt", "setting": "nitric oxide (NO) [2]; [11]", "value": "27.74 ± 2.01", "unit": "μM/L"}, {"measurement": "HDL", "setting": "lipid profile [3]; DM, 400 mcg", "value": 2.79, "unit": "%"}, {"measurement": "LDL", "setting": "lipid profile [3]; DM, 400 mcg", "value": "−1.3", "unit": "%"}, {"measurement": "TC", "setting": "lipid profile [3]; DM, 400 mcg", "value": "−0.28", "unit": "%"}, {"measurement": "TG", "setting": "lipid profile [3]; DM, 400 mcg", "value": "−0.49", "unit": "%"}, {"measurement": "Mean percentage change in HDL-C", "setting": "lipid profile [3]; [12]", "value": "2.79 ± 2.88 @NS %"}, {"measurement": "Mean percentage change in LDL-C", "setting": "lipid profile [3]; [12]", "value": "−1.30 ± 1.42", "unit": "NS %"}, {"measurement": "Mean percentage change in Total Cholesterol", "setting": "lipid profile [3]; [12]", "value": "−0.28 ± 0.81 #NS %"}, {"measurement": "Mean percentage change in Triglycerides", "setting": "lipid profile [3]; [12]", "value": "−0.49 ± 0.93", "unit": "NS %"}, {"measurement": "HDL-C Post Tt", "setting": "lipid profile [3]; [10]", "value": "39.95 ± 2.72", "unit": "mg/dL"}, {"measurement": "LDL-C Post Tt", "setting": "lipid profile [3]; [10]", "value": "108.93 ± 10.40", "unit": "mg/dL"}, {"measurement": "Total Cholesterol Post Tt", "setting": "lipid profile [3]; [10]", "value": "184.89 ± 9.67", "unit": "NS mg/dl"}, {"measurement": "Triglycerides Post Tt", "setting": "lipid profile [3]; [10]", "value": "180.11 ± 7.80 $ mg/dl"}, {"measurement": "HDL-C Pre Tt", "setting": "lipid profile [3]; [11]", "value": "38.89 ± 2.85", "unit": "mg/dL"}, {"measurement": "LDL-C Pre Tt", "setting": "lipid profile [3]; [11]", "value": "110.33 ± 10.74", "unit": "mg/dL"}, {"measurement": "Total Cholesterol Pre Tt", "setting": "lipid profile [3]; [11]", "value": "185.42 ± 9.68", "unit": "mg/dL"}, {"measurement": "Triglycerides Pre Tt", "setting": "lipid profile [3]; [11]", "value": "181.00 ± 7.84", "unit": "mg/dL"}, {"measurement": "GSH", "setting": "glutathione (GSH); MS, 400 mcg", "value": 4.2, "unit": "%"}, {"measurement": "GSH Post Tt", "setting": "glutathione (GSH); [7]", "value": "542.56 ± 46.51", "unit": "μM/L"}, {"measurement": "Mean percentage change in GSH", "setting": "glutathione (GSH); [8]", "value": "4.17 ± 1.80", "unit": "%"}, {"measurement": "GSH Pre Tt", "setting": "glutathione (GSH); [9]", "value": "521.35 ± 49.06", "unit": "μM/L"}, {"measurement": "Fasting Glucose", "setting": "fasting plasma glucose [4]; MS, 400 mcg", "value": "−2.7", "unit": "%"}, {"measurement": "Fasting Plasma Glucose Post Tt", "setting": "fasting plasma glucose [4]; [7]", "value": "101.32 ± 16.51", "unit": "NS"}, {"measurement": "Fasting Plasma Glucose Pre Tt", "setting": "fasting plasma glucose [4]; [9]", "value": "104.16 ± 14.92"}, {"measurement": "Fasting Glucose", "setting": "fasting plasma glucose [5]; DM, 400 mcg", "value": 0.87, "unit": "%"}, {"measurement": "Fasting Plasma Glucose Post Tt", "setting": "fasting plasma glucose [5]; [10]", "value": "134.21 ± 9.32", "unit": "NS mg/dL"}, {"measurement": "Fasting Plasma Glucose Pre Tt", "setting": "fasting plasma glucose [5]; [11]", "value": "133.05 ± 7.95", "unit": "mg/dL"}, {"measurement": "HDL", "setting": "lipid profile [6]; MS, 400 mcg", "value": "−1.08", "unit": "%"}, {"measurement": "LDL", "setting": "lipid profile [6]; MS, 400 mcg", "value": 0.79, "unit": "%"}, {"measurement": "TC", "setting": "lipid profile [6]; MS, 400 mcg", "value": 0.49, "unit": "%"}, {"measurement": "TG", "setting": "lipid profile [6]; MS, 400 mcg", "value": 0.92, "unit": "%"}, {"measurement": "HDL-C Post Tt", "setting": "lipid profile [6]; [7]", "value": "36.79 ± 5.14", "unit": "NS mg/dl"}, {"measurement": "LDL-C Post Tt", "setting": "lipid profile [6]; [7]", "value": "117.37 ± 9.13", "unit": "NS mg/dl"}, {"measurement": "Mean percentage change in HDL-C", "setting": "lipid profile [6]; [7]", "value": "−1.08 ± 3.45", "unit": "%"}, {"measurement": "Mean percentage change in Total Cholesterol", "setting": "lipid profile [6]; [7]", "value": "0.49 ± 1.30", "unit": "%"}, {"measurement": "Mean percentage change in Triglycerides", "setting": "lipid profile [6]; [7]", "value": "0.92 ± 1.43", "unit": "%"}, {"measurement": "Total Cholesterol Post Tt", "setting": "lipid profile [6]; [7]", "value": "189.21 ± 10.80", "unit": "NS mg/dl"}, {"measurement": "Triglycerides Post Tt", "setting": "lipid profile [6]; [7]", "value": "175.26 ± 9.70", "unit": "mg/dL"}, {"measurement": "HDL-C Pre Tt", "setting": "lipid profile [6]; [9]", "value": "37.21 ± 5.16", "unit": "mg/dL"}, {"measurement": "LDL-C Pre Tt", "setting": "lipid profile [6]; [9]", "value": "116.42 ± 9.75", "unit": "mg/dL"}, {"measurement": "Total Cholesterol Pre Tt", "setting": "lipid profile [6]; [9]", "value": "188.37 ± 11.78", "unit": "mg/dL"}, {"measurement": "Triglycerides Pre Tt", "setting": "lipid profile [6]; [9]", "value": "173.68 ± 9.70", "unit": "mg/dL"}]}
